{"source": "patent US6060448A", "about": "“Casein fragments having growth promoting activity” (Pepsyn Limited, priority 1995, dated 2000)", "tested_on": "Rama 27 cells", "experiment": "incorporation of [3H] thymidine into the DNA of Rama 27 cells (growth promoting / mitogenic assay)", "assay_type": "cell-based", "conditions": "Rama 27 rat mammary fibroblast cell line", "experimental": "The growth promoting activity of different milk types was determined by precipitating caseins and assaying the supernatants for their ability to stimulate the incorporation of [3H] thymidine into the DNA of Rama 27 cells by known methodology (Smith et al, 1984).\nThe protein fractions A,B,C, of the casein digest where assayed for their ability to stimulate the incorporation of [3H] thymidine into the DNA of Rama 27 cells exactly as described previously.\nIn table 1, * indicates one unit of activity is defined as the amount of protein required to produce half maximal stimulation compared with 1% FCS when added to R27 cells."}
{"substance": "PDGF", "values": [{"measurement": "growth promoting activity (incorporation of 3H-thymidine into DNA)", "value": "not significantly stimulated"}]}
